Like-named read-outs stand apart in the source and are kept apart here.
Experiments:
[1] = target: EP2 (Homo sapiens (Human), UniProt P43116); assay: hEP2 cAMP assay (SF295 glioblastoma cells, HTRF cAMP); format: cell-based; conditions: antagonistic activity
In short: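 PGE2-driven cAMP accumulation was measured by HTRF in SF295 cells, which express endogenous EP2 only. Cells in assay buffer with 2 mM IBMX were pre-incubated 45 min at RT, then incubated 30 min at RT. Detection used competition between cellular cAMP and d2-cAMP for a cryptate anti-cAMP antibody.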

[2] = target: EP4 (Homo sapiens (Human), UniProt P35408); assay: hEP4 cAMP assay (BT549 breast cancer cells, HTRF cAMP); format: cell-based; conditions: antagonistic activity, PGE2 6 nM
Chain of EP4 (P35408 whole entry): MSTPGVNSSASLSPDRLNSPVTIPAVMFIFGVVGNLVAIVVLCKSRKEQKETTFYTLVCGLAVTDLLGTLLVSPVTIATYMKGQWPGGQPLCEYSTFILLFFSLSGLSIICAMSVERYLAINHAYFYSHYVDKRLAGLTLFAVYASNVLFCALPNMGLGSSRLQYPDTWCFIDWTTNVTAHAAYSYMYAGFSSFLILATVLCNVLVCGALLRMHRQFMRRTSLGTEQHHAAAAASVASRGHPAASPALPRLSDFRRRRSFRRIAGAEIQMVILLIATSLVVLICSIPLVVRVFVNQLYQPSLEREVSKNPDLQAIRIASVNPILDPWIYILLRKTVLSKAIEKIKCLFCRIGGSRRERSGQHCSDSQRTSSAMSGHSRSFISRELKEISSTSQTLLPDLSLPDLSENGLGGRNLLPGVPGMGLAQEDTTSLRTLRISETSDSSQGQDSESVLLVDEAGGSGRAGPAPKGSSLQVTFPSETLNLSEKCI
In short: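 cAMP accumulation quantified by HTRF competition between cellular cAMP and d2-labeled cAMP for cryptate anti-cAMP antibody. Cells: endogenously EP4-expressing BT549, buffer with 2 mM IBMX; 45 min RT compound preincubation preceded 30 min RT challenge with PGE2 at 6 nM final.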

[3] = target: T1, PTGER4 (EP4) (Homo sapiens (Human), UniProt P35408)
T1 sequence (P35408 whole entry): as above

[4] = target: PTGER2 (EP2) (Homo sapiens (Human), UniProt P43116); assay: hEP2 b-arrestin assay (PathHunter HEK 293 PTGER2 b-arrestin cells); format: cell-based; conditions: antagonistic activity, beta-arrestin assay; read-out: hEP2 b-arr IC50
Chain of PTGER2 (EP2) (P43116 whole entry): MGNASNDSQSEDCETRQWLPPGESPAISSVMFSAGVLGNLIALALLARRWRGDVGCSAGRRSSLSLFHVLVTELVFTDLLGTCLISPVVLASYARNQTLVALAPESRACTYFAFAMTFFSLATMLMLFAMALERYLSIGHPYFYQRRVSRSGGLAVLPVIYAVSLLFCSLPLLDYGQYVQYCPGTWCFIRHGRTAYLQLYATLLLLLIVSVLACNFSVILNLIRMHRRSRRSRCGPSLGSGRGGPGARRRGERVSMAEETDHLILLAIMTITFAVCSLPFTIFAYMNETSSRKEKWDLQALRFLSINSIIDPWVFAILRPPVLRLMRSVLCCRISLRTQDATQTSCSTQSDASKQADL
Protocol: Plate is pre-incubated 15 minutes at 37° C. Then five microliters of PGE2 (final conc. 5 μM) are transferred into the assay plate. Plate is incubated 120 minutes at 37° C.
(each concentration is measured in duplicate)

[5] = target: T1, PTGER4 (EP4); assay: cell-based

Chain of EP2 (P43116 whole entry): as above

Row | Compound | IC50 [1] [µM] | IC50 [2] [µM] | IC50 [3] [µM] | IC50 [4] [µM] | IC50 ([2]; BT549 cells) [µM] | IC50 [5] [µM]
1 | CCOc1cc(-c2cc(NCCc3cc4ccn(C)c4cc3F)ncn2)sc1C(=O)O [Ex 16] | 0.269 | 0.008 | 0.005 | – | – | –
2 | CCOc1cc(-c2cc(NCCc3cc4ccccc4c(Cl)c3OC)ncn2)sc1C(=O)O [Ex 19] | 0.249 | 0.011 | 0.016 | – | – | –
3 | CCOc1cc(-c2cc(NCCc3ccc4cccnc4c3C)ncn2)sc1C(=O)O [Ex 22] | 0.395 | 0.013 | 0.02 | – | – | –
4 | CCOc1cc(-c2cc(NCCc3cc4ccccc4cc3OC(C)C)ncn2)sc1C(=O)O [Ex 31] | 7.74 | 0.018 | 0.006 | – | – | –
5 | CCOc1cc(-c2cc(NCCc3c(OC)cc4ccccc4c3F)ncn2)ccc1CC(=O)O [Ex 37] | 0.281 | 0.022 | 0.016 | – | – | –
6 | CCOc1cc(-c2cc(NCCc3c(C#N)cc4ccccc4c3C)ncn2)ccc1C(=O)O [Ex 54] | 0.331 | 0.027 | 0.068 | – | – | –
7 | CCOc1cc(-c2cc(NCCc3ccc4cccc(F)c4c3)ncn2)sc1C(=O)O [Ex 66] | 1.22 | 0.035 | 0.021 | – | – | –
8 | C=Cc1c(CCNc2cc(-c3cc(OCC)c(C(=O)O)s3)ncn2)ccc2ccccc12 [Ex 75] | 0.483 | 0.041 | 0.086 | – | – | –
9 | CCOc1cc(-c2cc(NCCc3cc4ccsc4cc3C#N)ncn2)ccc1CC(=O)O [Ex 82] | 0.251 | 0.046 | 0.128 | – | – | –
10 | CCOc1cc(-c2cc(NCCc3cc4ccccc4cc3C#N)ncn2)ccc1OCC(=O)O [Ex 84] | 1.28 | 0.047 | 0.019 | – | – | –
11 | CCOc1cc(-c2cc(NCCc3cc(F)c4ncccc4c3F)ncn2)sc1C(=O)O [Ex 86] | 0.445 | 0.049 | 0.079 | – | – | –
12 | CCOc1cc(-c2cc(NCCc3cc4ccccc4cc3OC(C)C)ncn2)ccc1OCC(=O)O [Ex 89] | 19.4 | 0.054 | 0.017 | – | – | –
13 | CCOc1cc(-c2cc(NCCc3ccc4ncsc4c3)ncn2)sc1C(=O)O [Ex 91] | 0.586 | 0.056 | 0.04 | – | – | –
14 | CCOc1cc(-c2cc(NCCc3cc4ccccc4cc3C#N)ncn2)ccc1C(=O)O [Ex 92] | 1.68 | 0.057 | 0.105 | – | – | –
15 | CCOc1cc(-c2cc(NCCc3cc(C)c4c(c3)OCCO4)ncn2)sc1C(=O)O [Ex 95] | 0.447 | 0.059 | 0.025 | – | – | –
16 | CCOc1cc(-c2cc(NCCc3cc4cccnc4cc3F)ncn2)sc1C(=O)O [Ex 98] | 0.314 | 0.064 | 0.033 | – | – | –
17 | CCOc1cc(-c2cc(NCCc3cc4cnccc4cc3F)ncn2)sc1C(=O)O [Ex 106] | 0.831 | 0.074 | 0.135 | – | – | –
18 | N#Cc1cc2c(cc1CCNc1cc(-c3ccc(C(=O)O)c(OC4CCC4)c3)ncn1)OCCO2 [Ex 113] | 0.251 | 0.082 | 0.179 | – | – | –
19 | CCOc1cc(-c2cc(NCCc3ccc4sccc4c3)ncn2)ccc1OCC(=O)O [Ex 121] | 0.283 | 0.093 | 0.042 | – | – | –
20 | CCOc1cc(-c2cc(NCCc3cc4ccccc4cc3OC(F)F)ncn2)ccc1OCC(=O)O [Ex 129] | 0.494 | 0.104 | 0.035 | – | – | –
21 | C#Cc1c(CCNc2cc(-c3ccc(C(=O)O)c(OC4CCC4)c3)ncn2)ccc2ccccc12 [Ex 131] | 0.353 | 0.106 | 0.068 | – | – | –
22 | CCOc1cc(-c2cc(NCCc3ccc4ccccc4c3C)ncn2)ccc1OCCC(=O)O [Ex 134] | 0.358 | 0.084 | 0.063 | – | – | –
23 | C#Cc1c(CCNc2cc(-c3ccc(OCC(=O)O)c(OCC)c3)ncn2)ccc2ccccc12 [Ex 140] | 0.459 | 0.121 | 0.095 | – | – | –
24 | C#Cc1c(CCNc2cc(-c3ccc(C(=O)O)c(OCC)c3)ncn2)ccc2ccccc12 [Ex 141] | 0.328 | 0.122 | 0.131 | – | – | –
25 | CCOc1cc(-c2cc(NCCc3ccc4ccsc4c3)ncn2)ccc1OCC(=O)O [Ex 144] | 0.751 | 0.132 | 0.091 | – | – | –

Row | Compound | IC50 [1] [µM] | IC50 [2] [µM] | IC50 [3] [µM] | IC50 [4] [µM] | IC50 ([2]; BT549 cells) [µM] | IC50 [5] [µM]
26 | CCOc1cc(-c2cc(NCCc3cc4c(cc3Cl)NCCO4)ncn2)sc1C(=O)O [Ex 149] | 0.619 | 0.144 | 0.194 | – | – | –
27 | CCOc1cc(-c2cc(NCCc3cc4c(cc3Cl)OC(F)(F)O4)ncn2)sc1C(=O)O [Ex 165] | 0.333 | 0.164 | 0.188 | – | – | –
28 | CCOc1cc(-c2cc(NCCc3cc4c(cc3OC)NCCC4)ncn2)sc1C(=O)O [Ex 173] | 0.769 | 0.183 | 0.128 | – | – | –
29 | CCOc1cc(-c2cc(NCCc3cc4cccnc4cc3C)ncn2)sc1C(=O)O [Ex 177] | 0.28 | 0.186 | 0.156 | – | – | –
30 | CCOc1cc(-c2cc(NCCc3cc4cccnc4c(C)c3Cl)ncn2)ccc1OCC(=O)O [Ex 179] | 0.568 | 0.188 | 0.309 | – | – | –
31 | O=C(O)c1ccc(-c2cc(NCCc3cc4ccccc4cc3OC(F)F)ncn2)cc1OC1CCC1 [Ex 180] | 0.692 | 0.188 | 0.055 | – | – | –
32 | COc1c(CCNc2cc(-c3ccc(C(=O)O)c(SC)c3)ncn2)cc2ccccc2c1Cl [Ex 186] | 0.811 | 0.202 | 0.194 | – | – | –
33 | CCOc1cc(-c2cc(NCCc3c(F)cc4ncccc4c3F)ncn2)ccc1OCC(=O)O [Ex 191] | 0.329 | 0.208 | 0.279 | – | – | –
34 | CCOc1cc(-c2cc(NCCc3ccc4sccc4c3)ncn2)ccc1OC(C)C(=O)O (centres unmarked) [Ex 202] | 0.277 | 0.234 | 0.077 | – | – | –
35 | CCOc1cc(-c2cc(NCCc3cc4c(cc3C#N)OCCO4)ncn2)ccc1C(=O)O [Ex 203] | 0.687 | 0.237 | 0.352 | – | – | –
36 | O=C(O)c1ccc(-c2cc(NCCc3ccc4cccc(F)c4c3)ncn2)cc1OC1CCC1 [Ex 231] | 5.65 | 0.315 | 0.286 | – | – | –
37 | CCOc1cc(-c2cc(NCCc3ccc4c(c3)CCS4)ncn2)ccc1C(=O)O [Ex 255] | 0.272 | 0.38 | 0.788 | – | – | –
38 | CCOc1cc(-c2cc(NCCc3cc4ccccc4cc3Cl)ncn2)ccc1C(=O)O [Ex 279] | 0.559 | 0.489 | 0.743 | – | – | –
39 | CCOc1cc(-c2cc(NCCc3cc4ccccc4cc3OC(C)C)ncn2)ccc1C(=O)O [Ex 284] | > 28.1 | 0.509 | 0.125 | – | – | –
40 | O=C(O)c1ccc(-c2cc(NCCc3c(F)cc4ccccc4c3F)ncn2)cc1OC1CCC1 [Ex 333] | – | – | 0.128 | 0.359 | – | –
41 | CSc1cc(-c2cc(NCCc3c(F)cc4ccccc4c3F)ncn2)ccc1C(=O)O [Ex 336] | – | – | 0.113 | 0.225 | – | –
42 | CC(C)COc1cc(-c2cc(NCCc3cc(F)c4sccc4c3)ncn2)ccc1C(=O)O [Example 453, 4-{6-[2-(7-Fluoro-benzo[b]thiophen-5-yl)-ethylamino]-pyrimidin-4-yl}-2-isobutoxy-benzoic acid] | 0.281 | – | – | 0.102 | 0.118 | 0.07
43 | CCCCOc1cc(-c2cc(NCCc3cc(F)c4sccc4c3)ncn2)ccc1C(=O)O [Example 454, 2-Butoxy-4-{6-[2-(7-fluoro-benzo[b]thiophen-5-yl)-ethylamino]-pyrimidin-4-yl}-benzoic acid] | 0.608 | – | – | 0.088 | 0.225 | 0.212
44 | CCc1cc(-c2cc(NCCc3cc(F)c4sccc4c3)ncn2)sc1C(=O)O [Example 455, 3-Ethyl-5-{6-[2-(7-fluoro-benzo[b]thiophen-5-yl)-ethylamino]-pyrimidin-4-yl}-thiophene-2-carboxylic acid] | 0.25 | – | – | 0.271 | 0.038 | 0.018
45 | CCOc1cc(-c2cc(NCCc3cc(F)c4sccc4c3)ncn2)sc1CC(=O)O [Example 456, (3-Ethoxy-5-{6-[2-(7-fluoro-benzo[b]thiophen-5-yl)-ethylamino]-pyrimidin-4-yl}-thiophen-2-yl)-acetic acid] | 0.311 | – | – | 0.129 | 0.014 | 0.021
46 | CCOc1cc(-c2cc(NCCc3cc(F)c4sccc4c3)ncn2)ccc1C(=O)NCC(C)(C)O [Example 463] | – | – | 0.223 | 0.934 | – | –
47 | CCOc1cc(-c2cc(NCCc3ccc4scc(C)c4c3)ncn2)ccc1C(=O)O [Example 465, 2-Ethoxy-4-{6-[2-(3-methyl-benzo[b]thiophen-5-yl)-ethylamino]-pyrimidin-4-yl}-benzoic acid] | 0.245 | – | – | 0.313 | 1.4 | 0.827
48 | CCOc1cc(-c2cc(NCCc3ccc4scc(C)c4c3)ncn2)ccc1OCC(=O)O [Example 466, (2-Ethoxy-4-{6-[2-(3-methyl-benzo[b]thiophen-5-yl)-ethylamino]-pyrimidin-4-yl}-phenoxy)-acetic acid] | 0.19 | – | – | 0.206 | 1.21 | 0.171
49 | (4-{6-[2-(4-Fluoro-benzo[b]thiophen-5-yl)-ethylamino]-pyrimidin-4-yl}-2-trifluoromethoxy-phenyl)-acetic acid [Example 489] | – | – | 0.128 | 0.231 | – | –
